Assay results: paper PMC7466040, “Sevanol and Its Analogues: Chemical Synthesis, Biological Effects and Molecular Docking” (Pharmaceuticals, 2020)

Legend:
mice [1] = test system: mice; set-up: method as in PMID 30545037; details: parenteral, 0.01–10 mg/kg; cited from earlier work
mice [2] = test system: mice; set-up: method as in PMID 30545037; details: parenteral, 0.01–10 mg/kg; cited from earlier work; remark: listed apart in the source
ICR male mice = assay: Complete Freund's adjuvant-induced thermal hyperalgesia (hot plate); assay type: in vivo; details: hot plate 53 °C
Method: Specific pathogen-free outbred ICR male mice (6 to 8 weeks old, weighing 29 to 33 g) were obtained from the Animal Breeding Facility of the Branch of the Shemyakin-Ovchinnikov Institute of Bioorganic Chemistry of the Russian Academy of Sciences (Pushchino). The animals were acclimatized for 2 weeks before the experimental procedures, and were kept in two-corridor barrier rooms under a controlled environment: a temperature of 20 to 24 °C, a relative humidity of 30% to 60%, and a 12 h light cycle. The animals were housed in Type 3 standard polycarbonate cages (820 cm2) on bedding (LIGNOCEL BK 8/15, JRS, Germany), with ad libitum access to feed (SSNIFF V1534-300, Spezialdiaeten, GmbH) and filtered tap water. The mouse cages were also supplied with material for environmental enrichment, i.e., Mouse House (Techniplast, Italy). Sevanol or the vehicle was administered intravenously, intranasally and orally (30 min before testing).
The development of the inflammation and thermal hyperalgesia of the paw was induced by the injection of the oil/saline (1:1) CFA emulsion into the dorsal surface of the hind paw of the mice (20 μL/paw) 24 h before the measurement. Saline (20 μL) was injected into the control mice. The inflamed paw withdrawal latencies to thermal stimulation were measured on a hot plate device (Hot Plate Analgesia Meter, Columbus Instruments) with a set temperature of 53 ± 0.1 °C and a cut-off time of 60 s.
Figure 5 The analgesic and anti-inflammatory effects of sevanol following intravenous, intranasal and per os administration. The effect of sevanol on the acetic acid induced writhing (A–C) and on the mice withdrawal latency on a hot plate in the thermal hyperalgesia test after CFA injection (D–F) upon intravenous (A,D), intranasal (B,E) and oral (C,F) administration. […] The results are presented as the mean ± SD (n = 6–10). The p-values of the sevanol groups vs. the saline group are based on an analysis of variance and on Tukey’s test; * p < 0.05, ** p < 0.005, *** p < 0.001.

For `O=C(O)CC(C(=O)O)C(OC(=O)C1=Cc2cc(O)c(O)cc2C(c2ccc(O)c(O)c2)C1C(=O)OC(C(=O)O)C(CC(=O)O)C(=O)O)C(=O)O` (centres unmarked) [sevanol], the “effect on CFA-induced thermal hyperalgesia” value (mice [1]) is given as “significantly reversed”, the “effect on acetic acid-induced writhing” value (mice [2]) is given as “reduced the number of writhes” and the “dose at which reversal of CFA-induced thermal hyperalgesia reached statistical significance, i.n.” value (ICR male mice; intranasal) is given as 1 mg/kg. The “dose at which reversal of CFA-induced thermal hyperalgesia reached statistical significance, i.v.” value (ICR male mice; intravenous) was 1 mg/kg and the “dose at which reversal of CFA-induced thermal hyperalgesia was statistically significant, p.o.” value (ICR male mice; oral) was 0.1 mg/kg.
